Results from patent US12018021B2 (UCB Biopharma SRL, priority 2018, dated 2024).

Biological target: IgE-Tb / FcεRIα-Y131A-AF488 (Homo sapiens, UniProt P01854)
Experiment: IgE-Tb / FcεRIα-Y131A-AF488 FRET assay (protocol for examples 1 to 233)
Type: binding
Conditions: examples 1 to 233: 5 nM IgE-Tb, 25 nM FcεRIα-Y131A-AF488, incubated 2 hours at room temperature; read-out: Y131A FRET IC50 range
Procedure, shortened: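 TR-FRET displacement with 5 nM IgE-Tb and 25 nM FcεRIα-Y131A-AF488 (final), 10-point 3-fold compound dilutions from typically 10 μM top, 2% DMSO, 2 h at room temperature. Excitation 330 nm, 520/495 nm emission ratio; MIN set with 200 nM unlabelled FcεRIα. IC50 from four-parameter logistic fit of percent inhibition.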

IgE-Tb / FcεRIα-Y131A-AF488, sequence (P01854 1-427 limits assumed, stated change not applied): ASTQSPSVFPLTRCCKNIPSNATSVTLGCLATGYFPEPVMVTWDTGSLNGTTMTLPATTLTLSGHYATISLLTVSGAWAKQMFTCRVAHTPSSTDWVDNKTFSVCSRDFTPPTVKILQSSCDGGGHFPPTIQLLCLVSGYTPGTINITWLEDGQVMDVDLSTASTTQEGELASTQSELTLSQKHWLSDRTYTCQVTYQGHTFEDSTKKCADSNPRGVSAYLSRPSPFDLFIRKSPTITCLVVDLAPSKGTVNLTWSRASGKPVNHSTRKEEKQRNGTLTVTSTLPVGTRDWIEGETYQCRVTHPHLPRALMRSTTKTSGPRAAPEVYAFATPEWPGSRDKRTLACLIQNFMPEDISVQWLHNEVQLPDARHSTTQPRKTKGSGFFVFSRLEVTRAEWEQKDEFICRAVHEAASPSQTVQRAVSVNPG

## N#CC1CCCc2c1sc(NC(=O)C1CC1)c2C(=O)NCC1CC1 (centres unmarked) [Example 65, 7-Cyano-2-(cyclopropanecarbonylamino)-N-(cyclopropylmethyl)-4,5,6,7-tetrahydrobenzothiophene-3-carboxamide]
  IC50: 1 to 10 µM

## O=C(NCC1CC1)c1c(NC(=O)C2CC2)sc2c1C[C@H](C(F)(F)F)CC2 [Example 66, (5R)-2-(Cyclopropanecarbonylamino)-N-(cyclopropylmethyl)-5-(trifluoromethyl)-4,5,6,7-tetrahydrobenzothiophene-3-carboxamide]
  IC50: 1 to 10 µM

## O=C(NCC1CC1)c1c(NC(=O)C2CC2)sc2c1C[C@@H](C(F)(F)F)CC2 [Example 67, (5S)-2-(Cyclopropanecarbonylamino)-N-(cyclopropylmethyl)-5-(trifluoromethyl)-4,5,6,7-tetrahydrobenzothiophene-3-carboxamide]
  IC50: < 1 µM

## Cc1coc(C2CCc3sc(NC(=O)C4CC4)c(C(=O)NCC4CC4)c3C2)n1 (centres unmarked) [Example 68, 2-(Cyclopropanecarbonylamino)-N-(cyclopropylmethyl)-5-(4-methyloxazol-2-yl)-4,5,6,7-tetrahydrobenzothiophene-3-carboxamide]
  IC50: 1 to 10 µM

## NCC1(O)CCc2sc(NC(=O)C3CC3)c(C(=O)NCC3CC3)c2C1 (centres unmarked) [Example 69, 5-(Aminomethyl)-2-(cyclopropanecarbonylamino)-N-(cyclopropylmethyl)-5-hydroxy-6,7-dihydro-4H-benzothiophene-3-carboxamide]
  IC50: 10 to 50 µM

## Cc1ccc(NC(=O)NCC2(O)CCc3sc(NC(=O)C4CC4)c(C(=O)NCC4CC4)c3C2)cc1 (centres unmarked) [Example 70, 2-(Cyclopropanecarbonylamino)-N-(cyclopropylmethyl)-5-hydroxy-5-[(p-tolylcarbamoylamino)methyl]-6,7-dihydro-4H-benzothiophene-3-carboxamide]
  IC50: 1 to 10 µM

## Cc1noc(C2CCc3sc(NC(=O)C4CC4)c(C(=O)NCC4CC4)c3C2)n1 (centres unmarked) [Example 71, 2-(Cyclopropanecarbonylamino)-N-(cyclopropylmethyl)-5-(3-methyl-1,2,4-oxadiazol-5-yl)-4,5,6,7-tetrahydrobenzothiophene-3-carboxamide]
  IC50: 1 to 10 µM

## Cc1nnc(C2CCc3sc(NC(=O)C4CC4)c(C(=O)NCC4CC4)c3C2)o1 (centres unmarked) [Example 72, 2-(Cyclopropanecarbonylamino)-N-(cyclopropylmethyl)-5-(5-methyl-1,3,4-oxadiazol-2-yl)-4,5,6,7-tetrahydrobenzothiophene-3-carboxamide]
  IC50: 1 to 10 µM

## O=C(NCC1CC1)c1c(NC(=O)C2CC2)sc2c1CC(C(=O)N1CCCC1)CC2 (centres unmarked) [Example 73, 2-(Cyclopropanecarbonylamino)-N-(cyclopropylmethyl)-5-(pyrrolidine-1-carbonyl)-4,5,6,7-tetrahydrobenzothiophene-3-carboxamide]
  IC50: 1 to 10 µM

## CC1(O)CCc2sc(NC(=O)C3CC3)c(C(=O)NCC3CC3)c2C1 (centres unmarked) [Example 74, 2-(Cyclopropanecarbonylamino)-N-(cyclopropylmethyl)-5-hydroxy-5-methyl-6,7-dihydro-4H-benzothiophene-3-carboxamide]
  IC50: 10 to 50 µM

## O=C(Nc1sc2c(c1C(=O)N1CC[C@@H](F)C1)CCCC2)C1CC1 [Example 75, N-[3-[(3R)-3-Fluoropyrrolidine-1-carbonyl]-4,5,6,7-tetrahydrobenzothiophen-2-yl]cyclopropanecarboxamide]
  IC50: 1 to 10 µM

## O=C(Nc1sc2c(c1C(=O)N1CC(F)C1)CCCC2)C1CC1 [Example 76, N-[3-(3-Fluoroazetidine-1-carbonyl)-4,5,6,7-tetrahydrobenzothiophen-2-yl]cyclopropanecarboxamide]
  IC50: 1 to 10 µM

## COC1CN(C(=O)c2c(NC(=O)C3CC3)sc3c2CCCC3)C1 [Example 77]
  IC50: 1 to 10 µM

## O=C(Nc1sc2c(c1C(=O)N1CCCCC1)CCCC2)C1CC1 [Example 78, N-[3-(Piperidine-1-carbonyl)-4,5,6,7-tetrahydrobenzothiophen-2-yl]cyclopropanecarboxamide]
  IC50: 1 to 10 µM

## CNC(=O)c1c(NC(=O)C2CC2)sc2c1CCCC2O (centres unmarked) [Example 79, 2-(Cyclopropanecarbonylamino)-7-hydroxy-N-methyl-4,5,6,7-tetrahydrobenzothiophene-3-carboxamide]
  IC50: 10 to 50 µM

## CC1Cc2c(sc(NC(=O)C3CC3)c2C(=O)NCC2CC2)C(C)C1 (centres unmarked) [Example 81, 2-(Cyclopropanecarbonylamino)-N-(cyclopropylmethyl)-5,7-dimethyl-4,5,6,7-tetrahydrobenzothiophene-3-carboxamide]
  IC50: 1 to 10 µM

## CC1CCc2sc(NC(=O)C3CC3)c(C(=O)NCC3CC3)c2C1 (centres unmarked) [Example 82, 2-(Cyclopropanecarbonylamino)-N-(cyclopropylmethyl)-5-methyl-4,5,6,7-tetrahydrobenzothiophene-3-carboxamide]
  IC50: 1 to 10 µM

## CC1(C)CCc2sc(NC(=O)C3CC3)c(C(=O)NCC3CC3)c2C1 [Example 84, 2-(Cyclopropanecarbonylamino)-N-(cyclopropylmethyl)-5,5-dimethyl-6,7-dihydro-4H-benzothiophene-3-carboxamide]
  IC50: 1 to 10 µM

## CC1CC(=O)c2sc(NC(=O)C3CC3)c(C(=O)NCC3CC3)c2C1 (centres unmarked) [Example 85, 2-(Cyclopropanecarbonylamino)-N-(cyclopropylmethyl)-5-methyl-7-oxo-5,6-dihydro-4H-benzothiophene-3-carboxamide]
  IC50: 1 to 10 µM

## O=C(NCC1CC1)c1c(NC(=O)C2CC2)sc2c1CC1(CC2)OCCO1 [Example 86, 2′-(Cyclopropanecarbonylamino)-N-(cyclopropylmethyl)spiro[1,3-dioxolane-2,5′-6,7-dihydro-4H-benzothiophene]-3′-carboxamide]
  IC50: < 1 µM

## CC(C)C(=O)Nc1sc2c(c1C(=O)NCC1CC1)CCCC2 [Example 87, N-(Cyclopropylmethyl)-2-(2-methylpropanoylamino)-4,5,6,7-tetrahydrobenzothiophene-3-carboxamide]
  IC50: 10 to 50 µM

## O=C(NCC1CC1)c1c(NC(=O)C2CCC2)sc2c1CCCC2 [Example 88, 2-(Cyclobutanecarbonylamino)-N-(cyclopropylmethyl)-4,5,6,7-tetrahydrobenzothiophene-3-carboxamide]
  IC50: 10 to 50 µM

## CC1CCc2sc(NC(=O)C3CC3)c(C(=O)NCC3CC3)c2C1C (centres unmarked) [Example 89, 2-(Cyclopropanecarbonylamino)-N-(cyclopropylmethyl)-4,5-dimethyl-4,5,6,7-tetrahydrobenzothiophene-3-carboxamide]
  IC50: 1 to 10 µM

## O=C1NC(=O)C2(CCc3sc(NC(=O)C4CC4)c(C(=O)NCC4CC4)c3C2)N1 (centres unmarked) [Example 92, 2-(Cyclopropanecarbonylamino)-N-(cyclopropylmethyl)-2′,5′-dioxo-spiro[6,7-dihydro-4H-benzothiophene-5,4′-imidazolidine]-3-carboxamide]
  IC50: 1 to 10 µM

## O=C(OCC1CC1)c1c(NC(=O)C2CC2)sc2c1CC(NC(=S)Nc1cccnc1)CC2 (centres unmarked) [Example 93, Cyclopropylmethyl 2-(cyclopropanecarbonylamino)-5-(3-pyridylcarbamothioylamino)-4,5,6,7-tetrahydrobenzothiophene-3-carboxylate]
  IC50: 1 to 10 µM

## O=C(OCC1CC1)c1c(NC(=O)C2CC2)sc2c1CC(n1cnnc1Nc1cccnc1)CC2 (centres unmarked) [Example 94, Cyclopropylmethyl 2-(cyclopropanecarbonylamino)-5-[3-(3-pyridylamino)-1,2,4-triazol-4-yl]-4,5,6,7-tetrahydrobenzothiophene-3-carboxylate]
  IC50: < 1 µM
